Experimental findings from US20030036532A1, “Use of 2-phenylene diamine derivatives for the treatment of infections” (priority 2000, published 2003) are described below.

For the experiment, the system named is Plasmodium falciparum. Kind of experiment: antimalarial activity in in vitro cultures of Plasmodium falciparum, inhibition of [3H]-hypoxanthine incorporation. The format is cell-based. The settings on record: inhibition of tritium incorporation relative to comparison without substance, 48 h + 24 h incubation; for % Inhibition at 10 μM / inhibition at 10 µM: 10 μM compound; for % Inhibition at 100 μM / inhibition at 100 µM: 100 μM compound; for inhibition at 10 µM / inhibition at 100 µM: Plasmodium falciparum; for % Inhibition at 1 μM: 1 μM compound. The method, then: To determine the anti-malaria activity, for example, the inhibition of the growth of malaria parasites in blood cultures is determined. […] The plates are incubated at 37° C., 3% CO2 and 5% O2 over a period of 48 hours. 30 μl of medium supplemented with 27 μCi ml^−1 [^3H]-hypoxanthine were then added to each well. After 24 hours' incubation, the parasites were harvested by filtration through glass fiber filters and the incorporated radioactivity was measured. Inhibition of parasite growth was measured as the percentage inhibition of tritium incorporation relative to a comparison without substance. The table states the percentage inhibition in dependence of the concentrations.

Take `COC(=O)CC(=O)Nc1ccc(NC(=O)Cc2ccc(C)cc2)c(C(=O)c2ccccc2)c1` [example 2]: the “% Inhibition at 10 μM” value came out at 19% and the “% Inhibition at 100 μM” value is 95%.

Consider `CCCCCCCCCCCCCCC(=O)NCCCC(=O)Nc1ccc(NC(=O)Cc2ccc(C)cc2)c(C(=O)c2ccccc2)c1` [example 8, N-[4-[3-benzoyl-4-[[2-(4-methylphenyl)acetyl]amino]phenylamino]-4-oxobutyl]-pentadecanoic Acid Amide], for which the inhibition at 10 µM was 0% and the inhibition at 100 µM came to 93%.

As to `Cc1ccc(CC(=O)Nc2ccc(NC(=O)CNC(=O)C=Cc3ccc(-c4ccccc4)cc3)cc2C(=O)c2ccccc2)cc1` [compound 12, N-[2-[3-benzoyl-4-[[2-(4-methylphenyl)acetyl]amino]phenylamino]-2-oxo-ethyl]-4-phenylcinnamic Acid Amide], the inhibition at 10 µM was 67% and the inhibition at 100 µM worked out at 89%.

In the case of `Cc1ccc(CC(=O)Nc2ccc(NC(=O)C=Cc3ccc(OCc4ccccc4)cc3)cc2C(=O)c2ccccc2)cc1` [compound 24], the “% Inhibition at 1 μM” value was 85%, the “% Inhibition at 10 μM” value is on record as 96% and the “% Inhibition at 100 μM” value stood at 97%.

In the case of `Cc1ccc(CC(=O)Nc2ccc(NC(=O)c3cccc4ccccc34)cc2C(=O)c2ccccc2)cc1` [compound 26], the “% Inhibition at 1 μM” value is 0%, the “% Inhibition at 10 μM” value was found to be 65% and the “% Inhibition at 100 μM” value turned out to be 93%.

Regarding `COC(=O)CCC(=O)Nc1ccc(NC(=O)Cc2ccc(C)cc2)c(C(=O)c2ccccc2)c1` [example 4], the “% Inhibition at 10 μM” value came out at 0% and the “% Inhibition at 100 μM” value turned out to be 29%.

`Cc1ccc(CC(=O)Nc2ccc(NC(=O)c3cccnc3)cc2C(=O)c2ccccc2)cc1` [compound 14, N-[3-benzoyl-4-[2-(4-methylphenyl)acetyl]amino]phenylnicotinic Acid Amide]: the “% Inhibition at 10 μM” value was determined as 0% and the “% Inhibition at 100 μM” value turned out to be 34%.

As for `Cc1ccc(CC(=O)Nc2ccc(NC(=O)C=Cc3ccc(-c4ccccc4)cc3)cc2C(=O)c2ccccc2)cc1` [compound 23, N-[3-[3-benzoyl-4-[2-(4-methylphenyl)acetyl]amino]phenylamino]-4-phenyl-cinnamic Acid Amide], the “% Inhibition at 1 μM” value amounted to 82%, the “% Inhibition at 10 μM” value was 94% and the “% Inhibition at 100 μM” value is recorded as 94%.

As for `Cc1ccc(CC(=O)Nc2ccc(NC(=O)Cc3ccccc3)cc2C(=O)c2ccccc2)cc1` [compound 16], the “% Inhibition at 1 μM” value came to 0%, the “% Inhibition at 10 μM” value stood at 0% and the “% Inhibition at 100 μM” value stood at 94%.

On to `CCCCCCCCCCCCCCCCC(=O)NCC(=O)Nc1ccc(NC(=O)Cc2ccc(C)cc2)c(C(=O)c2ccccc2)c1` [example 7, N-[2-[3-benzoyl-4-[[2-(4-methylphenyl)acetyl]amino]phenylamino]-2-oxoethyl]-heptadecanoic Acid Amide], for which the inhibition at 10 µM came to 0% and the inhibition at 100 µM was 83%.

For the molecule `Cc1ccc(CC(=O)Nc2ccc(NC(=O)c3ccccc3)cc2C(=O)c2ccccc2)cc1` [compound 15], the “% Inhibition at 1 μM” value was 0%, the “% Inhibition at 10 μM” value stood at 77% and the “% Inhibition at 100 μM” value was determined as 96%.

“N-[3-benzoyl-4-[2-(4-methylphenyl)acetyl]amino]phenyl]-4-(4-nitrophenyl)butyric Acid Amide [compound 31]”: the “% Inhibition at 1 μM” value was found to be 0%, the “% Inhibition at 10 μM” value turned out to be 93% and the “% Inhibition at 100 μM” value is on record as 96%.

`CCCCCCCCCCCCCCCC(=O)NCCC(=O)Nc1ccc(NC(=O)Cc2ccccc2)c(C(=O)c2ccccc2)c1` [compound 11, N-[3-[3-benzoyl-4-[(2-phenylacetyl)amino]phenylamino]-3-oxopropyl]-hexadecanoic Acid Amide]: the inhibition at 10 µM turned out to be 0% and the inhibition at 100 µM was found to be 98%.

In the case of `Cc1ccc(CC(=O)Nc2ccc(NC(=O)CCCCc3ccccc3)cc2C(=O)c2ccccc2)cc1` [compound 20], the “% Inhibition at 1 μM” value was 0%, the “% Inhibition at 10 μM” value was determined as 94% and the “% Inhibition at 100 μM” value was 97%.

As to `Cc1ccc(CC(=O)Nc2ccc(NC(=O)CCCc3ccccc3)cc2C(=O)c2ccccc2)cc1` [compound 19], the “% Inhibition at 1 μM” value was found to be 0%, the “% Inhibition at 10 μM” value came to 95% and the “% Inhibition at 100 μM” value worked out at 97%.

For `Cc1ccc(CC(=O)Nc2ccc(NC(=O)C=Cc3ccccc3)cc2C(=O)c2ccccc2)cc1` [compound 21], the “% Inhibition at 1 μM” value is reported as 0%, the “% Inhibition at 10 μM” value stood at 95% and the “% Inhibition at 100 μM” value was 94%.

Take `CCCCCCCCCCCCCCNC(=O)CCCC(=O)Nc1ccc(NC(=O)Cc2ccc(C)cc2)c(C(=O)c2ccccc2)c1` [example 9]: the “% Inhibition at 10 μM” value is recorded as 0% and the “% Inhibition at 100 μM” value was 96%.

As for `Cc1ccc(CC(=O)Nc2ccc(NC(=O)CCCC(=O)O)cc2C(=O)c2ccccc2)cc1` [example 5], the “% Inhibition at 10 μM” value was determined as 0% and the “% Inhibition at 100 μM” value is listed as 59%.

Turning to `Cc1ccc(CC(=O)Nc2ccc(NC(=O)C3c4ccccc4-c4ccccc43)cc2C(=O)c2ccccc2)cc1` [compound 28], the “% Inhibition at 1 μM” value was found to be 0%, the “% Inhibition at 10 μM” value was 0% and the “% Inhibition at 100 μM” value turned out to be 98%.

`Cc1ccc(CC(=O)Nc2ccc(NC(=O)CSCc3ccc([N+](=O)[O-])cc3)cc2C(=O)c2ccccc2)cc1` [compound 32]: the “% Inhibition at 1 μM” value is 0%, the “% Inhibition at 10 μM” value amounted to 0% and the “% Inhibition at 100 μM” value came to 96%.

On to `Cc1ccc(CC(=O)Nc2ccc(NC(=O)CCc3ccccc3)cc2C(=O)c2ccccc2)cc1` [compound 17], for which the “% Inhibition at 1 μM” value came out at 0%, the “% Inhibition at 10 μM” value is given as 91% and the “% Inhibition at 100 μM” value is recorded as 94%.

For the molecule `Cc1ccc(CC(=O)Nc2ccc(NC(=O)COCc3ccccc3)cc2C(=O)c2ccccc2)cc1` [compound 30], the “% Inhibition at 1 μM” value came to 0%, the “% Inhibition at 10 μM” value is reported as 93% and the “% Inhibition at 100 μM” value was 97%.

With `Cc1ccc(CC(=O)Nc2ccc(NC(=O)CCC(=O)O)cc2C(=O)c2ccccc2)cc1` [example 3], the “% Inhibition at 10 μM” value was determined as 0% and the “% Inhibition at 100 μM” value was 38%.

Turning to “N-[2-[3-benzoyl-4-[[2-(4-methylphenyl)acetyl]amino]phenylamino]-2-oxo-ethyl]-4-benzoic Acid Amide [compound 25]”, the “% Inhibition at 1 μM” value is recorded as 0%, the “% Inhibition at 10 μM” value was found to be 0% and the “% Inhibition at 100 μM” value was determined as 86%.

As to `Cc1ccc(CC(=O)Nc2ccc(NC(=O)CCC3CCCCC3)cc2C(=O)c2ccccc2)cc1` [compound 18], the “% Inhibition at 1 μM” value is given as 9%, the “% Inhibition at 10 μM” value is 98% and the “% Inhibition at 100 μM” value is listed as 98%.

Consider `O=C(C=Cc1ccc(OCc2ccccc2)cc1)NCCC(=O)Nc1ccc(NC(=O)Cc2ccccc2)c(C(=O)c2ccccc2)c1` [compound 13, N-[3-[3-benzoyl-4-[(2-phenylacetyl)amino]phenylamino]-3-oxopropyl]-4-benzyl-oxycinnamic Acid Amide], for which the inhibition at 10 µM is 97% and the inhibition at 100 µM came to 95%.

For `COC(=O)CCCC(=O)Nc1ccc(NC(=O)Cc2ccc(C)cc2)c(C(=O)c2ccccc2)c1` [example 6], the “% Inhibition at 10 μM” value is 0% and the “% Inhibition at 100 μM” value was found to be 98%.

With `Cc1ccc(CC(=O)Nc2ccc(-c3ccccc3CNC(=O)CS)cc2C(=O)c2ccccc2)cc1` [compound 29], the “% Inhibition at 1 μM” value is 0%, the “% Inhibition at 10 μM” value was found to be 91% and the “% Inhibition at 100 μM” value is 97%.

For the molecule `Cc1ccc(CC(=O)Nc2ccc(NC(=O)C=Cc3ccc([N+](=O)[O-])cc3)cc2C(=O)c2ccccc2)cc1` [compound 22], the “% Inhibition at 1 μM” value was found to be 0%, the “% Inhibition at 10 μM” value was 82% and the “% Inhibition at 100 μM” value stood at 88%.

Consider `COC(=O)CC(=O)Nc1ccc(NC(=O)C(C)c2ccccc2)c(C(=O)c2ccccc2)c1` (stereo not shown) [example 1, 2-[N-[3-[3-benzoyl-4-(2-phenylpropionyl)amino]phenylamino]carbamoyl]acetic Acid Methylester], for which the “% Inhibition at 10 μM” value was determined as 19% and the “% Inhibition at 100 μM” value is listed as 89%.

In the case of `CCCCCCCCCCCCCCCCCCCC(=O)Nc1ccc(NC(=O)Cc2ccc(C)cc2)c(C(=O)c2ccccc2)c1` [compound 10, N-[3-benzoyl-4-[[2-(4-methylphenyl)acetyl]amino]phenyl]eicosanoic Acid Amide], the inhibition at 10 µM turned out to be 0% and the inhibition at 100 µM came to 99%.

What is called % Inhibition is the change of the read-out against control, counted positive when it falls. As usually defined, the inhibition is how much of the control response was suppressed.
